Laboratory results: US10760110B2, “Antibiotic testing and screening system” (priority 2017, dated 2020)
Values after ≈ are worked out from the molar mass of the structure shown. Read-outs that look alike come from different tables or passages of the source.

How the values were obtained:
Conditions in all cases: Klebsiella pneumoniae
[1] = system: K. pneumoniae NVT1001 and its ΔompK35/36 and/or ΔramR mutants; test: Etest MIC, OmpK35/36 loss and AcrAB-TolC overexpression (ΔramR) strains (Table 6); assay type: cell-based, Klebsiella pneumoniae
Method in brief: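 Etest MICs against K. pneumoniae NVT1001 and its ΔompK35/36 and/or ΔramR mutants, rounded up to the next two-fold value. For NVT1001 carrying pACYC177-blaOXA-48, ceftazidime and cefotaxime MICs by CLSI broth microdilution, interpreted with CLSI 2017 breakpoints.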

[2] = system: K. pneumoniae NVT1001 ΔramRΔompK35/36 mutant and its revertants; test: Etest MIC, ΔramRΔompK35/36 mutant and its revertants (Table 7); assay type: cell-based
[3] = system: K. pneumoniae NVT1001 strains with carbapenemase plasmids; test: Etest MIC of β-lactams, OmpK35/36 loss, ΔramR and/or carbapenemase (Table 9); assay type: cell-based, Klebsiella pneumoniae
Method in brief: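 Etest MICs, with values between standard dilutions rounded up to the next two-fold step, were measured in K. pneumoniae NVT1001 carrying PCR-cloned resistance genes on pACYC177 or pACYC184 plasmids. Interpretation used CLSI 2017 breakpoints, CLSI 2015 for cephalothin and EUCAST 2017 for moxifloxacin. For the blaOXA-48 strain, ceftazidime and cefotaxime were additionally tested by CLSI broth microdilution.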

CO/N=C(\C(=O)N[C@@H]1C(=O)N2C(C(=O)O)=C(COC(C)=O)CS[C@H]12)c1csc(N)n1 [Cefotaxime]
MIC ([1]; WT, NVT1001, read-out: MIC): 0.06 µg/mL (≈ 0.132 µM) | MIC ([1]; Δ35, ΔompK35 mutant): 0.125 µg/mL (≈ 0.274 µM) | MIC ([1]; Δ35/36, ΔompK35/36 mutant): 2 µg/mL (≈ 4.39 µM) | MIC ([1]; Δ36, ΔompK36 mutant): 0.25 µg/mL (≈ 0.549 µM) | MIC ([1]; ΔramR mutant): 1 µg/mL (≈ 2.2 µM) | MIC ([1]; ΔramRΔ35, ΔramRΔompK35 mutant): 1 µg/mL (≈ 2.2 µM) | MIC ([1]; ΔramRΔ35/36, ΔramRΔompK35/36 mutant): 4 µg/mL (≈ 8.78 µM) | MIC ([1]; ΔramRΔ36, ΔramRΔompK36 mutant): 4 µg/mL (≈ 8.78 µM) | MIC ([2]; ΔramRΔompK35/36::ompK35/36 revertant): 1 µg/mL | MIC ([2]; ΔramRΔompK35/36::ompK35 revertant): 4 µg/mL | MIC ([2]; ΔramRΔompK35/36::ompK36 revertant): 1 µg/mL | MIC ([2]; ΔramRΔompK35/36::ramR revertant): 2 µg/mL | MIC ([2]; ΔramRΔompK35/36::ramR::ompK35/36 revertant): 0.06 µg/mL | MIC ([2]; ΔramRΔompK35/36::ramR::ompK35 revertant): 0.25 µg/mL | MIC ([2]; ΔramRΔompK35/36::ramR::ompK36 revertant): 0.125 µg/mL | MIC ([2]; ΔramRΔompK35/36 mutant): 4 µg/mL | MIC ([3]; IMP-8 on pACYC177, WT (NVT1001), read-out: MIC): 64 µg/mL | MIC ([3]; IMP-8 on pACYC177, Δ35 (ΔompK35 mutant)): 128 µg/mL | MIC ([3]; IMP-8 on pACYC177, Δ35/36 (ΔompK35/36 mutant)): > 256 µg/mL | MIC ([3]; IMP-8 on pACYC177, Δ36 (ΔompK36 mutant)): 256 µg/mL | MIC ([3]; IMP-8 on pACYC177, ΔramR mutant): 128 µg/mL | MIC ([3]; IMP-8 on pACYC177, ΔramRΔ35 (ΔramRΔompK35 mutant)): 128 µg/mL | MIC ([3]; IMP-8 on pACYC177, ΔramRΔ35/36 (ΔramRΔompK35/36 mutant)): 256 µg/mL | MIC ([3]; IMP-8 on pACYC177, ΔramRΔ36 (ΔramRΔompK36 mutant)): 256 µg/mL | MIC ([3]; KPC-2 on pACYC177, WT (NVT1001), read-out: MIC): 128 µg/mL | MIC ([3]; KPC-2 on pACYC177, Δ35 (ΔompK35 mutant)): 256 µg/mL | MIC ([3]; KPC-2 on pACYC177, Δ35/36 (ΔompK35/36 mutant)): > 256 µg/mL | MIC ([3]; KPC-2 on pACYC177, Δ36 (ΔompK36 mutant)): 256 µg/mL | MIC ([3]; KPC-2 on pACYC177, ΔramR mutant): 256 µg/mL | MIC ([3]; KPC-2 on pACYC177, ΔramRΔ35 (ΔramRΔompK35 mutant)): 256 µg/mL | MIC ([3]; KPC-2 on pACYC177, ΔramRΔ35/36 (ΔramRΔompK35/36 mutant)): > 256 µg/mL | MIC ([3]; KPC-2 on pACYC177, ΔramRΔ36 (ΔramRΔompK36 mutant)): > 256 µg/mL | MIC ([3]; KPC-3 on pACYC177, WT (NVT1001), read-out: MIC): 128 µg/mL | MIC ([3]; KPC-3 on pACYC177, Δ35 (ΔompK35 mutant)): 256 µg/mL | MIC ([3]; KPC-3 on pACYC177, Δ35/36 (ΔompK35/36 mutant)): > 256 µg/mL | MIC ([3]; KPC-3 on pACYC177, Δ36 (ΔompK36 mutant)): 256 µg/mL | MIC ([3]; KPC-3 on pACYC177, ΔramR mutant): 256 µg/mL | MIC ([3]; KPC-3 on pACYC177, ΔramRΔ35 (ΔramRΔompK35 mutant)): 256 µg/mL | MIC ([3]; KPC-3 on pACYC177, ΔramRΔ35/36 (ΔramRΔompK35/36 mutant)): > 256 µg/mL | MIC ([3]; KPC-3 on pACYC177, ΔramRΔ36 (ΔramRΔompK36 mutant)): > 256 µg/mL | MIC ([3]; NDM-1 on pACYC177, WT (NVT1001), read-out: MIC): 256 µg/mL | MIC ([3]; NDM-1 on pACYC177, Δ35 (ΔompK35 mutant)): 256 µg/mL | MIC ([3]; NDM-1 on pACYC177, Δ35/36 (ΔompK35/36 mutant)): > 256 µg/mL | MIC ([3]; NDM-1 on pACYC177, Δ36 (ΔompK36 mutant)): > 256 µg/mL | MIC ([3]; NDM-1 on pACYC177, ΔramR mutant): > 256 µg/mL | MIC ([3]; NDM-1 on pACYC177, ΔramRΔ35 (ΔramRΔompK35 mutant)): > 256 µg/mL | MIC ([3]; NDM-1 on pACYC177, ΔramRΔ35/36 (ΔramRΔompK35/36 mutant)): > 256 µg/mL | MIC ([3]; NDM-1 on pACYC177, ΔramRΔ36 (ΔramRΔompK36 mutant)): > 256 µg/mL | MIC ([3]; OXA-48 on pACYC177, WT (NVT1001), read-out: MIC): 2 µg/mL | MIC ([3]; OXA-48 on pACYC177, Δ35 (ΔompK35 mutant)): 4 µg/mL | MIC ([3]; OXA-48 on pACYC177, Δ35/36 (ΔompK35/36 mutant)): 32 µg/mL | MIC ([3]; OXA-48 on pACYC177, Δ36 (ΔompK36 mutant)): 16 µg/mL | MIC ([3]; OXA-48 on pACYC177, ΔramR mutant): 4 µg/mL | MIC ([3]; OXA-48 on pACYC177, ΔramRΔ35 (ΔramRΔompK35 mutant)): 4 µg/mL | MIC ([3]; OXA-48 on pACYC177, ΔramRΔ35/36 (ΔramRΔompK35/36 mutant)): 32 µg/mL | MIC ([3]; OXA-48 on pACYC177, ΔramRΔ36 (ΔramRΔompK36 mutant)): 32 µg/mL | MIC ([3]; VIM-1 on pACYC177, WT (NVT1001), read-out: MIC): > 256 µg/mL | MIC ([3]; VIM-1 on pACYC177, Δ35 (ΔompK35 mutant)): > 256 µg/mL | MIC ([3]; VIM-1 on pACYC177, Δ35/36 (ΔompK35/36 mutant)): > 256 µg/mL | MIC ([3]; VIM-1 on pACYC177, Δ36 (ΔompK36 mutant)): > 256 µg/mL | MIC ([3]; VIM-1 on pACYC177, ΔramR mutant): > 256 µg/mL | MIC ([3]; VIM-1 on pACYC177, ΔramRΔ35 (ΔramRΔompK35 mutant)): > 256 µg/mL | MIC ([3]; VIM-1 on pACYC177, ΔramRΔ35/36 (ΔramRΔompK35/36 mutant)): > 256 µg/mL | MIC ([3]; VIM-1 on pACYC177, ΔramRΔ36 (ΔramRΔompK36 mutant)): > 256 µg/mL | MIC ([3]; no supplemental plasmid, WT (NVT1001), read-out: MIC): 0.06 µg/mL | MIC ([3]; no supplemental plasmid, Δ35 (ΔompK35 mutant)): 0.125 µg/mL | MIC ([3]; no supplemental plasmid, Δ35/36 (ΔompK35/36 mutant)): 2 µg/mL | MIC ([3]; no supplemental plasmid, Δ36 (ΔompK36 mutant)): 0.25 µg/mL | MIC ([3]; no supplemental plasmid, ΔramR mutant): 1 µg/mL | MIC ([3]; no supplemental plasmid, ΔramRΔ35 (ΔramRΔompK35 mutant)): 1 µg/mL | MIC ([3]; no supplemental plasmid, ΔramRΔ35/36 (ΔramRΔompK35/36 mutant)): 4 µg/mL | MIC ([3]; no supplemental plasmid, ΔramRΔ36 (ΔramRΔompK36 mutant)): 4 µg/mL
